Laboratory results taken from paper PMC6003104, “Discovery of a Short‐Chain Dehydrogenase from Catharanthus roseus that Produces a New Monoterpene Indole Alkaloid” (Chembiochem, 2018).

Biological target: T1, vitrosamine synthase (VAS, Cro013448) (Catharanthus roseus, UniProt A0A0C5DR25)
T1 construct: N-terminal His6 tag (pOPINF) kept; E. coli SoluBL21; calculated 34469 Da; monomer in solution, dimer in crystal; modelled residues 7-299
Assay: X-ray crystal structure, […] Å
Type: binding
Conditions: co-purified from E. coli as holoenzyme; crystals pH 4.0, 20 °C; active site, next to Ser167/Tyr223/Lys227

T1 sequence (A0A0C5DR25 entry or part of it): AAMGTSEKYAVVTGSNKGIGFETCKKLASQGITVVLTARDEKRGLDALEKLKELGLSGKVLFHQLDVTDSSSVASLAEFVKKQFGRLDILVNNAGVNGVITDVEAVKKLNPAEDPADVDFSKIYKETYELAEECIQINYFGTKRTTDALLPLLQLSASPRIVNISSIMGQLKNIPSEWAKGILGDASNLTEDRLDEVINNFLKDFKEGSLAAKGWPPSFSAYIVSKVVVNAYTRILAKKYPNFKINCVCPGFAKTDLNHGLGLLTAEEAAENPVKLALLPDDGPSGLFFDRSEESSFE

NC(=O)c1ccc[n+]([C@@H]2O[C@H](COP(=O)(O)OP(=O)(O)OC[C@H]3O[C@@H](n4cnc5c(N)ncnc54)[C@H](OP(=O)(O)O)[C@@H]3O)[C@@H](O)[C@H]2O)c1 [NADP+]
X-ray crystal structure, 1.55 Å: the apo enzyme active site also had a high occupancy of NADP^+
